Among the data in US5449814A, “Lignan analogues, methods of preparation thereof and anti-hyperlipemic agents” (Shionogi & Co., Ltd., priority 1991, dated 1995) are inhibition in vivo and IC50 values, retold here.

The subject of assay [1] is cholesterol in serum. As to the kind of experiment: Hypocholesterolemic effect in cholesterol-fed mice. It is filed as in vivo, Male ICR mice. The note with it: Mus musculus, po, 168 h, diet 1% cholesterol and 0.5% sodium cholate with 0.12% test compound, 7 days. How it is done: Hypocholesterolemic effect
Male ICR mice weighing 30 to 40 g were allowed to access to a diet containing 1% cholesterol and 0.5% sodium cholate supplemented with 0.12% of a test compound (no test compound in control group) ad libitum for 7 days. Then, the blood was taken and total cholesterol in serum was determined by the method of Allain (Clin. Chem., Vol. 20, 470 (1974)).
Total amount of VLDL cholesterol and LDL cholesterol was obtained by subtracting HLD cholesterol from total cholesterol. HLD cholesterol was quantified by the method of Ash and Hentschel et al. (Clin. Chem., Vol. 24, 2180 (1978)).
Hypocholesterolemic effect of a test compound was evaluated based on % reduction in cholesterol calculated using the equation shown below.

Assay [2] has as its system LDL. As to the kind of experiment: Inhibitory effect on oxidative modification of LDL (copper-induced, TBA reactive substances). The note with it: rabbit LDL 0.2 mg protein/ml, 0.5 μM Cu^2+, 37° C., 24 hours; read-out: Inhibition of LDL oxidation IC50. It counts as biochemical, New Zealand albino rabbits. As for the experimental part:
Inhibitory effect on oxidative modification of LDL
According to the method by Kita et al. (Proc. Natl. Acad. Sci., U.S.A, Vol. 84, 5928 (1987)), the experiment was proceeded as follows.
LDL was isolated from the blood of New Zealand albino rabbits fed with a diet containing 0.5% cholesterol for 3 weeks, and dissolved in phosphate-buffered physiological saline (final LDL concentration: 0.2 mg protein/ml). To this solution, each test compound in ethanol was added and then copper sulfate (final Cu^2+ concentration: 0.5 μM) was added thereto. The mixture was incubated at 37° C. for 24 hours.
After incubation, the content of lipid peroxides in each solution was determined as thiobarbituric acid reactive substances (TBA reactive substances). Concentration for 50% inhibition (IC50) was obtained from a linear regression curve of concentration of a compound versus % inhibition of oxidative modification of LDL. To quantify TBA reactive substances, proteins were removed from the solution after incubation, and the supernatant was examined for the content of TBA reactive substances by TBA method.

[3] abbreviates: serum, read-out: Total Chol. reduction (%).
Where [4] appears, read: total minus HDL cholesterol, read-out: (VLDL + LDL) Chol. reduction (%).

Structures are written as SMILES. Where two headings read alike, the source gives them in different places.

Turning to `COC(=O)c1c(C(=O)c2ccc(C(F)(F)F)cc2)c(O)c2cc(OC)c(OC)c(OC)c2c1-c1ccc(OC)c(OC)c1` [Example 28, 1-(3,4-Dimethoxyphenyl)-4-hydroxy-2-methoxycarbonyl-3-[4-(trifluoromethyl)benzoyl]-6,7,8-trimethoxynaphthalene], the inhibition in vivo at 0.12 % in diet in assay [1] (setting [3]) came out at 22%; in assay [1] (setting [4]), 61%. In assay [2], the IC50 stood at 1520 nM.

As for `CCCc1ccc(C(=O)c2c(C(=O)OC)c(-c3ccc(OC)c(OC)c3)c3c(OC)c(OC)c(OC)cc3c2O)cc1` [Example 29, 1-(3,4-Dimethoxyphenyl)-4-hydroxy-2-methoxycarbonyl-3-[4-(1-propyl)benzoyl]-6,7,8-trimethoxynaphthalene], the inhibition in vivo at 0.12 % in diet in assay [1] (setting [3]) was determined as 20%; in assay [1] (setting [4]), 42%. Also, the IC50 in assay [2] is 1380 nM.

`COC(=O)c1c(C(=O)c2ccc(C(C)(C)C)cc2)c(O)c2cc(OC)c(OC)c(OC)c2c1-c1ccc(OC)c(OC)c1` [Example 30, 3-[4-(t-Butyl)benzoyl]-1-(3,4-dimethoxyphenyl)-4-hydroxy-2-methoxycarbonyl-6,7,8-trimethoxynaphthalene]: the inhibition in vivo at 0.12 % in diet was found to be 7% in assay [1] (setting [3]) and 44% in assay [1] (setting [4]). Also, in assay [2], the IC50 worked out at 2000 nM.

Turning to `COC(=O)c1c(C(=O)C(F)(F)C(F)(F)F)c(O)c2cc(OC)c(OC)c(OC)c2c1-c1ccc(OC)c(OC)c1` [Example 31, 1-(3,4-Dimethoxyphenyl)-4-hydroxy-2-methoxycarbonyl-3-(pentafluoro-1-oxopropyl)-6,7,8-trimethoxynaphthalene], the inhibition in vivo at 0.12 % in diet is 15% in assay [1] (setting [3]) and 41% in assay [1] (setting [4]). The IC50 in assay [2] was 850 nM.

In the case of `CCC(CC)CC(=O)c1c(C(=O)OC)c(-c2ccc(OC)c(OC)c2)c2cc3c(cc2c1O)OCCO3` [Example 36, 1-(3,4-Dimethoxyphenyl)-6,7-ethylenedioxy-3-(3-ethyl-1-oxopentyl)-4-hydroxy-2-(methoxycarbonyl)naphthalene], the inhibition in vivo at 0.12 % in diet worked out at 21% in assay [1] (setting [3]) and 49% in assay [1] (setting [4]). Further, the IC50 in assay [2] amounted to 2210 nM.

For the compound `CCC(=O)c1c(C(=O)OC)c(-c2ccc(OC)c(OC)c2)c2cc(OC(C)C)c(OC(C)C)cc2c1O` [Example 38, 6,7-Bis(2-propyloxy)-1-(3,4-dimethoxyphenyl)-4-hydroxy-2-methoxycarbonyl-3-(1-oxopropyl)naphthalene], the inhibition in vivo at 0.12 % in diet in assay [1] (setting [3]) was 26%; in assay [1] (setting [4]) it was 61%. The IC50 in assay [2] worked out at 2100 nM.

For `COC(=O)c1c(C(=O)c2ccc(C(F)(F)F)cc2)c(O)c2cc(OC(C)C)c(OC(C)C)cc2c1-c1ccc(OC)c(OC)c1` [Example 40, 6,7-Bis(2-propyloxy)-1-(3,4-dimethoxyphenyl)-4-hydroxy-2-methoxycarbonyl-3-[4-(trifluoromethyl)benzoyl]naphthalene], the results for the inhibition in vivo at 0.12 % in diet in assay [1] (setting [3]) and in assay [1] (setting [4]) were 23% and 56%, respectively. Also, the IC50 in assay [2] was found to be 4290 nM.

For `CCC(=O)c1c(C(=O)OC)c(-c2ccc(OC)cc2OC)c2c(OC)c(OC)c(OC)cc2c1O` [Example 41, 1-(2,4-Dimethoxyphenyl)-4-hydroxy-2-methoxycarbonyl-3-(1-oxopropyl)-6,7,8-trimethoxynaphthalene], the values for the inhibition in vivo at 0.12 % in diet in assay [1] (setting [3]) and in assay [1] (setting [4]) were 11% and 41%, respectively. Further, the IC50 in assay [2] came to 17000 nM.

With `CCC(CC)CC(=O)c1c(C(=O)OC)c(-c2ccc(OC)cc2OC)c2c(OC)c(OC)c(OC)cc2c1O` [Example 42, 1-(2,4-Dimethoxyphenyl)-3-(3-ethyl-1-oxopentyl)-4-hydroxy-2-methoxycarbonyl-6,7,8-trimethoxynaphthalene], the results for the inhibition in vivo at 0.12 % in diet in assay [1] (setting [3]) and in assay [1] (setting [4]) were 5% and 26%, respectively. Also, the concentration for half-maximal inhibition (IC50) in assay [2] stood at 1680 nM.

`COC(=O)c1c(C(=O)c2ccc(C(F)(F)F)cc2)c(O)c2cc(OC)c(OC)c(OC)c2c1-c1ccc(OC)cc1OC` [Example 43, 1-(2,4-Dimethoxyphenyl)-4-hydroxy-2-methoxycarbonyl-3-[4-(trifluoromethyl)benzoyl]-6,7,8-trimethoxynaphthalene]: the inhibition in vivo at 0.12 % in diet in assay [1] (setting [3]) was found to be 15%; in assay [1] (setting [4]), 59%. In addition, in assay [2], the IC50 is 2120 nM.

Turning to `COC(=O)c1c(C(=O)c2ccc(C(F)(F)F)cc2)c(O)c2cc3c(cc2c1-c1ccc(OC)cc1OC)OCO3` [Example 46, 1-(2,4-Dimethoxyphenyl)-4-hydroxy-2-methoxycarbonyl-6,7-methylenedioxy-3-[4-(trifluoromethyl)benzoyl]naphthalene], the inhibition in vivo at 0.12 % in diet amounted to 5% in assay [1] (setting [3]) and 47% in assay [1] (setting [4]). In assay [2], the IC50 worked out at 6200 nM.

`CCC(=O)c1c(C(=O)OC)c(-c2ccc(OC)c(OC)c2)c2sc(CC)c(OC)c2c1O` [Example 56, 7-(3,4-Dimethoxyphenyl)-2-ethyl-4-hydroxy-3-methoxy-6-methoxycarbonyl-5-(1-oxopropyl)benzo[b]thiophene]: the inhibition in vivo at 0.12 % in diet in assay [1] (setting [3]) was found to be 20%; in assay [1] (setting [4]), 58%. For the same compound, the half-maximal inhibitory concentration (IC50) in assay [2] is 1280 nM.

Regarding `CCC(CC)CC(=O)c1c(C(=O)OC)c(-c2ccc(OC)c(F)c2)c2c(OC)c(OC)c(OC)cc2c1O` [Example 61, 3-(3-Ethyl-1-oxopentyl)-1-(3-fluoro-4-methoxyphenyl)-4-hydroxy-2-methoxycarbonyl-6,7,8-trimethoxynaphthalene], the inhibition in vivo at 0.12 % in diet in assay [1] (setting [3]) turned out to be 11%; in assay [1] (setting [4]) it was 43%. In addition, the half-inhibitory concentration (IC50) in assay [2] stood at 4950 nM.

Consider `COc1ccc(-c2c(C)c(C(=O)c3ccc(C(F)(F)F)cc3)c(O)c3cc(OC)c(OC)c(OC)c23)cc1OC` [Example 62, 1-(3,4-dimethoxyphenyl)-4-hydroxy-2-methyl-3-[4-(trifluoromethyl)benzoyl]-6,7,8-trimethoxynaphthalene], for which the figures for the inhibition in vivo at 0.12 % in diet in assay [1] (setting [3]) and in assay [1] (setting [4]) were 27% and 59%, respectively. The IC50 in assay [2] worked out at 8980 nM.

In the case of `COc1ccc(-c2c(C(F)(F)F)c(C(=O)c3ccc(C(F)(F)F)cc3)c(O)c3cc(OC)c(OC)c(OC)c23)cc1OC` [Example 63, 1-(3,4-dimethoxyphenyl)-4-hydroxy-2-(trifluoromethyl)-3-[4-(trifluoromethyl)benzoyl]-6,7,8-trimethoxynaphthalene], the inhibition in vivo at 0.12 % in diet in assay [1] (setting [3]) is 20%; in assay [1] (setting [4]) it was 53%. Also, in assay [2], the IC50 amounted to 2320 nM.

Turning to `CCC(CC)C(=O)c1c(C)c(-c2ccc(OC)c(OC)c2)c2c(OC)c(OC)c(OC)cc2c1O` [Example 64, 1-(3,4-dimethoxyphenyl)-3-(2-ethyl-1-oxobutyl)-4-hydroxy-2-methyl-6,7,8-trimethoxynaphthalene], the inhibition in vivo at 0.12 % in diet in assay [1] (setting [3]) is 2%; in assay [1] (setting [4]), 39%. Moreover, the IC50 in assay [2] was determined as 7100 nM.

For the compound `CCC(CC)C(=O)c1c(C(F)(F)F)c(-c2ccc(OC)c(OC)c2)c2c(OC)c(OC)c(OC)cc2c1O` [Example 66, 1-(3,4-Dimethoxyphenyl)-3-(2-ethyl-1-oxobutyl)-4-hydroxy-2-(trifluoromethyl)-6,7,8-trimethoxynaphthalene], the inhibition in vivo at 0.12 % in diet is 9% in assay [1] (setting [3]) and 36% in assay [1] (setting [4]). For the same compound, the IC50 in assay [2] was determined as 1470 nM.

On to `CCC(CC)CC(=O)c1c(C(=O)OC)c(-c2ccc(OC)c(OC)c2)c2c(OC)c(OC)c(OC)c(OC)c2c1O` [Example 69, 1-(3,4-dimethoxyphenyl)-3-(3-ethyl-1-oxopentyl)-4-hydroxy-2-methoxycarbonyl-5,6,7,8-tetramethoxynaphthalene], for which the values for the inhibition in vivo at 0.12 % in diet in assay [1] (setting [3]) and in assay [1] (setting [4]) were 10% and 16%, respectively. Besides, in assay [2], the IC50 was found to be 2790 nM.

As to `CCC(CC)CC(=O)c1c(C(=O)OC)c(-c2ccc(OC)c(OC)c2)c2c(OC)c(OC)c(OC)c(CO)c2c1O` [Example 71, 1-(3,4-dimethoxyphenyl)-3-(3-ethyl-1-oxopentyl)-4-hydroxy-5-hydroxymethyl-2-methoxycarbonyl-6,7,8-trimethoxynaphthalene], the inhibition in vivo at 0.12 % in diet came out at 16% in assay [1] (setting [3]) and 44% in assay [1] (setting [4]). In addition, the IC50 in assay [2] was found to be 5960 nM.

As for `CCC(=O)c1c(C(=O)OC)c(-c2ccc(OC)c(OC)c2)c2c(OC)c(OC)c(OC)c(C)c2c1O` [Example 72, 1-(3,4-dimethoxyphenyl)-3-(1-oxopropyl)-4-hydroxy-2-methoxycarbonyl-5-methyl-6,7,8-trimethoxynaphthalene], the inhibition in vivo at 0.12 % in diet in assay [1] (setting [3]) turned out to be 20%; in assay [1] (setting [4]), 64%. The IC50 in assay [2] worked out at 590 nM.

In general, IC50 refers to the concentration needed to halve the response being measured.
